Reference: patent publication EP0075823A2, “Use of basically substituted phenylacetonitriles in the prophylactic treatment of illnesses” (KNOLL AG, priority 1981, dated 1983)

Tested on: diabetischer Ratten
Assay: Alloxan-induced diabetes mellitus in rats: prevention of lens and arterial wall calcinosis
Assay type: in vivo, Wistar-Ratten
Details: for durch Calcinose von Gefäßwänden verursachte Arterienveränderungen verhindern: attempts with other calcium antagonists, no dose or model details printed
Description: Gemäß der Erfindung wird es zum ersten Mal möglich, die Krankheiten vorbeugend bei Warmblütern mit Erfolg medikamentös zu behandeln, wie folgende Versuche zeigen: • Wistar-Ratten im Alter von 2 Monaten erhielten zur Erzeugung eines Diabetes mellitus intravenös 80 mg/kg Alloxan. Nach Zerstörung der Insulin-produzierenden ß-Zellen im Pancreas stieg der Blutzuckerwert bei den Tieren von 100 mg% auf etwa 420 mg%. Dieser Wert blieb während einer Beobachtungszeit von 6 1/2 Monaten praktisch konstant. Während der Beobachtungszeit erhielt ein Teil der Tiere täglich 25 mg/kg Verapamilhydrochlorid mit einer Schlucksonde. Bei den nicht mit Verapamil behandelten Tieren kam es in dieser Zeit bei 63 % der Tiere zu einem völligen Verlust der Transparenz der Augenlinse, während sich bei den behandelten Tieren nur in 4 % der Fälle ein Katarakt bildete.
Ohne Verapamil stieg der Calcium-Gehalt der Linse diabetischer Ratten vom Normalwert nicht-diabetischer Kontrolltiere (= 1,08 (i 0,02)) auf 10,89 (± 0,85) mmol/kg Trockengewicht an. Dagegen verblieb mit Verapamil der mittlere Calcium-Gehalt der Linsen diabetischer Tiere in dem niedrigeren Bereich von 3,46 (± 0,61) mmol/kg Trockengewicht.
-Mit der Verhinderung des Calcium-Anstiegs in den Arterien--Wänden wurden auch die elektronen-optisch - hauptsächlich in der Media - nachweisbaren degenerativen Prozesse verhütet.

## COc1ccc(CCN(C)CCCC(C#N)(c2cc(OC)c(OC)c(OC)c2)C(C)C)cc1OC (stereo not drawn) [Gallopamil, α-ISOpropyl-α-[(N-methyl-N-homoveratryl)--α-aminopropyl]-3,4,5-trimethoxyphenylacetonitril]
General statement that corresponding results can be obtained, no data or dose printed
  Verhütung der diabetischen Linsen-Calcinose und des Calcium-Anstiegs in den Arterien-Wänden: Entsprechende Ergebnisse

## COC(=O)C1=C(C)NC(C)=C(C(=O)OC)C1c1ccccc1[N+](=O)[O-] [Nifedipin]
  durch Calcinose von Gefäßwänden verursachte Arterienveränderungen verhindern: erfolglos

## CCCOCCOC(=O)C1=C(C)NC(C)=C(C(=O)OCCOCCC)C1c1cccc([N+](=O)[O-])c1 [Niludipin]
  durch Calcinose von Gefäßwänden verursachte Arterienveränderungen verhindern: erfolglos

## COc1ccc(CCN(C)CCCC(C#N)(c2ccc(OC)c(OC)c2)C(C)C)cc1OC (stereo not drawn) [Verapamil, α-Isopropyl-α-[(N-methyl-N-homoveratryl)--α-aminopropyl]-3,4-dimethoxyphenylacetonitril]
alloxan-diabetic Wistar rats (80 mg/kg Alloxan i.v.), 25 mg/kg daily by gavage, observation 6 1/2 months, untreated diabetic animals 63 %
  Katarakt (völliger Verlust der Transparenz der Augenlinse), Anteil der Tiere: 4%
alloxan-diabetic rats, 25 mg/kg daily p.o., 6 1/2 months, untreated diabetic 10,89 (± 0,85), non-diabetic controls 1,08
  mittlerer Calcium-Gehalt der Linsen diabetischer Tiere: 3,46 (± 0,61) mmol/kg Trockengewicht
Arterial walls of the same treated diabetic rats, electron microscopy
  elektronen-optisch - hauptsächlich in der Media - nachweisbare degenerative Prozesse: verhütet
Same alloxan-diabetic rats, 25 mg/kg daily p.o., 6 1/2 months
  abnormer Anstieg der Calcium-Werte in der Wand der Aorta und der Arteria mesenterica superior (Darmarterie): verhindert
